Earlier results, collected in publication PMC9998351 (Steroids, 2023).

Test system: CRPC CWR22Rv1 xenograft tumors
Details: CWR22Rv1 xenograft; 2 at 7.53-fold lower equimolar dose than Gal; p < 0.01; ref [26]; cited from earlier work

## C[C@]12CC[C@H](O)CC1=CC[C@@H]1[C@@H]2CC[C@]2(C)C(n3cnc4ccccc43)=CC[C@@H]12 [Gal, Galeterone, reference compound]
  Suppression of tumor growth: 47%
